{
  "source": "patent US20210187008A1",
  "about": "“USE OF ACANTHOPANAX TRIFOLIATUS POLYSACCHARIDE ATP1-1 IN PREPARATION OF DRUGS FOR TREATMENT OF DIABETES” (GUANGDONG PHARMACEUTICAL UNIVERSITY, priority 2019, published 2021)",
  "format_in_all_cases": "in vivo",
  "key": {"[1]": {"system": "diabetic mice", "experiment": "Diet and water consumption of diabetic mice", "details": "dimethylbiguanide 185 mg/kg, during the administration period, P<0.01", "method": "(§1) After 70 mice were adaptively fed for 3 days, they were fasted and kept feeding water for 12 hours, 0.1 mol/L STZ-streptozotocin solution was injected intraperitoneally, the injection volume was 60 mg/kg, and the injection was continued for 5 days. Seven days after the injection, the mice were fasted and kept feeding water for 8 hours, and the tail was cut to collect blood and the fasting blood glucose of the mice was measured. The model was considered as a successful model with a blood glucose concentration greater than 16.5 mmol/L. Diabetic mice successfully modeled (50) were randomly divided into 5 groups, namely: a high glucose model group, a dimethylbiguanid group (185 mg/kg), ATP1-1 high dose group (140 mg/kg), ATP1-1 medium dose group (70 mg/kg), ATP1-1 low dose group (35 mg/kg), 10 mice in each group, and 10 normal mice were randomly selected as a normal control group. All groups were administrated by intragastric administration, and the normal control group and high glucose model group were administrated the same amount of distilled water. after the successful modelling, the body weight, diet and water consumption and blood glucose of the mice before administration and 1, 2, 3, 4, 5, and 6 weeks after administration were measured, and the glucose tolerance was measured at the end of the experiment."}, "[2]": {"system": "STZ-induced diabetic mice", "experiment": "Body weight of STZ-induced diabetic mice", "details": "for Body Weight: dimethylbiguanide 185 mg/kg intragastric", "method": "as §1"}, "[3]": {"system": "diabetic mice", "experiment": "Fasting blood glucose in diabetic mice", "details": "dimethylbiguanide 185 mg/kg", "method": "as §1"}},
  "data": [
    {"smiles": "CN(C)C(=N)NC(=N)N", "note": "[Dimethylbiguanide, dimethylbiguanide]", "values": [
      {"measurement": "diet and water consumption compared with high glucose model group", "setting": "[1]", "value": "significantly reduced"},
      {"measurement": "Body Weight", "setting": "[2]; Week 0 (before administration), x±s, n=8", "value": "19.48 ± .78 g"},
      {"measurement": "Body Weight", "setting": "[2]; Week 1", "value": "19.72 ± .77 g"},
      {"measurement": "Body Weight", "setting": "[2]; Week 2", "value": "20.40 ± .78 g"},
      {"measurement": "Body Weight", "setting": "[2]; Week 3", "value": "20.94 ± .73 g"},
      {"measurement": "Body Weight", "setting": "[2]; Week 4", "value": "21.49 ± .84 g"},
      {"measurement": "Body Weight", "setting": "[2]; Week 5", "value": "21.70 ± .90 g"},
      {"measurement": "Body Weight", "setting": "[2]; Week 6", "value": "21.89 ± .89 g"},
      {"measurement": "body weight compared with high glucose model group", "setting": "[2]; dimethylbiguanide 185 mg/kg, after 6 weeks of administration, P<0.05", "value": "significantly higher"},
      {"measurement": "fasting blood sugar compared with high glucose group", "setting": "[3]; after three weeks of administration, P<0.05", "value": "significantly different"},
      {"measurement": "blood glucose inhibition rate", "setting": "[3]; at the end of the administration (6 weeks)", "value": 46.9, "unit": "%"}
    ]}
  ]
}
